Literature values in article PMC3834896.

Assay: not told
Conditions: not given

log partition n-octanol / PBS or water [log10]	SMILES
4.1	CCCCCCCCCCN1CCCC1=O
2.6	CCCCCCN1CCCCC1=O
4.9	CCCCCCCCCCCCN1CCCC1=O
1.4	CCCCN1CCCCC1=O
3.0	CCCCCCCCN1CCCC1=O
1.02	CCCCN1CCCC1=O
3.4	CCCCCCCCN1CCCCC1=O
2.1	CCCCCCN1CCCC1=O

Same assay, conditions: not told

log partition n-octanol / PBS or water [log10]	SMILES
4.0	CCCCCCCCN1CCCCCC1=O
6.3	CCCCCCCCCCCCN1CCCCCC1=O
1.9	CCCCCCCCC(=O)N(C)C
2.6	CCCCCCCC(=O)N(C)C
1.8	CCCCN1CCCCCC1=O
2.9	CCCCCCCCCC(=O)N1CC(O)CC1C(=O)NCC (centres unmarked)
1.4	CCCCCC(=O)N(C)C
1.9	CCCCCCC(=O)N(C)C
2.9	CCCCCCN1CCCCCC1=O
